Experimental data from US8318954B2, “Cleavable carnitine compound” (Nou Life Sciences, Inc., priority 2006, dated 2012).
Read-outs that look alike come from different tables or passages of the source. One block for each compound: values may come before it.

What was measured:
[1] = tested on: C. elegans; assay: Thermal avoidance (TAV) 3 step dose response testing; format: in vivo; conditions: for effects indicating increased sensory sensitivity: 0%, 6%, 12% laser intensity
From the text: The present invention includes a series of compounds that may be useful for increasing sensory neuron function in certain human neuropathological conditions. C. elegans contains a number of sensory neurons which are responsible for detecting a variety of external stimuli. One such stimulus (heat) can be detected and quantified in C. elegans by the use of thermal avoidance (TAV) technology available through NemaRx. The goal of this experiment was to provide an initial characterization of the compounds via TAV. Specifically, it was asked whether any of these compounds can lead to an increase in the thermal stimulus-induced behavioral response measured by TAV. N2 strain C. elegans animals were used for this project, which have ‘normal’, i.e. wildtype, sensory neuron function. Four compounds were received by NemaRx for TAV testing. These compounds were:
(§1) One 24 well microtiter plate was set up and incubated overnight on the shaker at 20 C. Each well on the plate was set up with 600 L3/L4-stage N2 animals in NGM with a 1:20 dilution of concentrated HB101 E. coli (food source) in a volume of 300 μl. Before the animal/HB101 solution was added, test compounds were pipetted into wells. For water controls and compound stocks/dilutions in water (DHLA, NAC) 6 μl was added to each well (1:50 dilutions). For DMSO controls and compound stocks/dilutions in DMSO (LA) 3 μl was added to each well (1:100 dilutions). No OD620 measurements were taken but the animals were visually scored after 19 h incubation.
Dose Responses—setup: All of the wells from the 24 well plate were used for dose response testing and the entire well contents (600 animals) were used for each test. Prior to being placed on the agar plate for TAV testing each sample was processed as follows: • sample were transferred to glass tube containing 7 ml PBS • animals were allowed to settle for 5 minutes before most of the supernatant was removed (approx. 0.5 ml remaining in tube) • 7 ml PBS was then added, mixed and animals were allowed to settle for 5 minutes most of the supernatant was then removed • animals were removed and transferred to TAV testing plate (NRx Application pattern A) • plate was allowed to dry for 10 minutes (plate cover removed) and TAV testing was initiated. Per plate settings for the dose response experiments were as follows:
Dose Responses—general notes on analysis: A response of the animals to a thermal stimulus (laser) which is applied to the head region can be detected both by a change in the direction of movement, as well as by a change in speed occurring within the test interval where the stimulus is applied. • direction of movement. […] Animals that show a strong change in the direction of movement, i.e. reversals, are classified as LR5 responders. […] LR5 responders show a thermal intensity-dependent increase in the speed of movement (starting off with less than <prelaser speed at low intensities up to > pre-laser speed at high intensities)
The dose response experiments for the current project were carried out with 0% (background control), 6% and 12% settings of laser intensity. In practice, 6% is on the edge of laser intensity required to detect an increase in the number of LR5 responders. As such, 6% should be a useful intensity-setting to detect compound-induced increased sensitivity in the animals. The 12% setting was chosen because this intensity typically gives a robust increase in the number of LR5 responders.
Total Responder speeds, ‘LR1 Responder speeds’ and ‘LR5 Responder speeds’ are shown as normalized speeds to allow better comparison between samples. For normalization purposes the average pre-laser speed is set at 1.0 and responder speeds are calculated relative to this value.
One 24 well microtiter plate was set up and incubated overnight on the shaker at 20° C. Each well on the plate was set up with 600 L3/L4-stage N2 animals in NGM with a 1:20 dilution of concentrated HB101 E. coli (food source) in a volume of 300 μl. […]

[2] = tested on: C. elegans; assay: Thermal avoidance (TAV) single intensity testing (6% laser intensity); format: in vivo
Protocol: (§2) One 24 well microtiter plate was set up and incubated overnight on the shaker at 20° C. Each well on the plate was set up with 600 L3/L4-stage N2 animals in NGM with a 1:20 dilution of concentrated HB101 E. coli (food source) in a volume of 300 μl. Before the animal/HB101 solution was added, test compounds were pipetted into wells. 3 μl each for the DMSO controls and LA dilutions were added to each well (1:100 dilutions). Controls and LA dilutions were done in triplicate (total of 9 wells).
6% Response tests—setup: All 9 wells from the 24 well plate were used for 6% testing and the entire well contents (600 animals) were used for each test. Prior to being placed on the agar plate for TAV testing each sample was processed as described for ‘Dose Responses’.
Dose Responses—general notes on analysis: Analysis similar as described in ‘Dose Responses’. In addition, ‘Response ratios’ as well as ‘A Speed responses’ both give measures of how much individual animals changed speed in response to the stimulus (additional information available upon request).
as §2, with “wells. 6” for “wells. 3”, “the water” for “the DMSO”, “and compound” for “and LA”, “well (1:50” for “well (1:100”, “of 15” for “of 9”
6% Response tests—setup: All 15 wells from the 24 well plate were used for 6% testing) and the entire well contents (600 animals) were used for each test. Prior to being placed on the agar plate for TAV testing each sample was processed as described for ‘Dose Responses’.
as §2, with “LC” for “LA”

[3] = tested on: C. elegans; assay: Visual scoring of C. elegans after overnight incubation with compound in 24 well plate; format: in vivo; conditions: DHLA1, 1:500 final concentration in well; 19 h incubation; L3/L4-stage N2 animals
Protocol: as §1
as §1, with “at 20°” for “at 20”, “For” for “For water controls and compound stocks/dilutions in water (DHLA, NAC) 6 μl was added to each well (1:50 dilutions). For”, “DMSO (LC)” for “DMSO (LA)”, “h incubation).” for “h incubation.”
as §1, with “at 20°” for “at 20”, “For” for “For water controls and compound stocks/dilutions in water (DHLA, NAC) 6 μl was added to each well (1:50 dilutions). For”, “DMSO (LC)” for “DMSO (LA)”, “after 22” for “after 19”, “h incubation).” for “h incubation.”

[4] = tested on: rats; conditions: cited from earlier work
[5] = tested on: mice and rats; conditions: individually or in combination at high doses, mice and rats; cited from earlier work
[6] = tested on: rats; conditions: 10 mg/kg cisplatin s.c. seven days, oral 300 mg/kg acetyl L-carnitine, 300 mg/kg carnitine mixture, 50 mg/kg α-lipoic acid; cited from earlier work
[7] = tested on: male patients with intermediate claudication; conditions: cited from earlier work; for TcPCO: after treatment
[8] = tested on: patients with chronic critical limb ischaemia; conditions: 1.2 g/day i.v. infusion for two weeks with calcium heparin 25,000 U/day s.c.; over baseline; cited from earlier work
[9] = tested on: C. elegans; assay: Toxicity testing in C. elegans, 96 well plate, bacterial clearance (OD620); format: in vivo; conditions: highest concentration tested, 8 mM, L1-stage N2 animals, OD620 up to 44 hours, HCl
Protocol: The work plan included a i) characterization of the compounds for toxicity in C. elegans and then, using subtoxic concentrations, a ii) characterization of compound effects on neuronal sensitivity as detected by TAV technology. Toxicity characterization follows a well established standard operating protocol used in previous toxicity-type assays in C. elegans. The initial TAV characterization of compound-mediated effects on C. elegans used a number of compound concentrations and incubation times that were selected by NemaRx as being most likely to detect any TAV-related effects that the compounds may have. […] 0% provides a ‘background’ measure, 6% typically gives intermediate TAV responses (and as such should provide a good starting point to detect compound-mediated increased TAV responses), and 12% usually gives robust responses. No obvious effects were detected for either of the four compounds. While the experimental setup provides a good first pass, the limitation lies in the relatively small number of animals that are assayed at each intensity (30). Subtle effects compound-mediated up-regulation at 6% laser intensity may be missed. • Single Intensity Testing: The two highest non-toxic compound concentrations for each of the four compounds were tested at 6% laser intensity. The number of datapoints collected was between 50-80 LA and >100 for the three other compounds. […] The experiment was carried out in quadruplicate. […] Stock Dilution Setup
Two 96 well microtiter plates set up which were incubated at 20 C (both 96 well plates were identical, i.e. the experiment was done in duplicate). Each well on the plates was set up with 100 L1-stage N2 animals in NGM with a 1:20 dilution of concentrated HB101 E. coli (food source) in a volume of 50 μl. Compounds (see below) were then added to the wells. For water controls and compound stocks/dilutions in water (DH LA, NAC) 1 μl was added to each well (1:50 dilutions). For DMSO controls and compound stocks/dilutions in DMSO (LA) 0.5 μl was added to each well (1:100 dilutions). […]

[10] = after 600 mg i.v. infusion, compared to pre-treatment values

visual scoring of well clearance [3]: some bacteria remaining
SMILES: O=C(O)CCCC[C@@H](S)CCS (racemic) [DHLA, Dihydrolipoic acid]
effects indicating increased sensory sensitivity ([1]; even at highest concentration of 1:500): No obvious effects detected | percentage of LR5 responders at 6% ([1]; second highest concentration (DHLA2)): relatively high | effect such as increased percentage of LR5 responders ([2]; 1:1,000 or 1:2,500): No obvious effect detected | response of animals that show a LR5 response ('Responder ratios', 'A Speed responses') ([2]; 1:2,500 concentration): slightly stronger response

SMILES: C[N+](C)(C)CC(O)CC(=O)[O-] (centres unmarked) [Carnitine]
area of skin flap necrosis ([4]; group 1, 50 mg/kg/day for 1 week): 12.55 cm^2 | area of skin flap necrosis ([4]; group 2, 100 mg/kg/day for 1 week): 9.23 cm^2 | tolerability and toxicity [5]: good tolerability and limited toxicity

SMILES: N.N.[Cl][Pt][Cl] [Cisplatin]
Equilibrium time [6]: 8.4 ± 0.8 s

SMILES: CCC(=O)O[C@H](CC(=O)[O-])C[N+](C)(C)C [L-Propionyl Carnitine]
Perfusion units [7, 10]: did not change significantly | TcPO [7, 10]: did not change significantly | resting TcPCO ([7]; after 600 mg i.v. infusion): no significant effects | TcPCO ([7]; at hypoxia point): 90.2 mm Hg | Mean laser-Doppler power spectrum ([7]; at rest, after 600 mg i.v. infusion): 0.89 units | Mean laser-Doppler power spectrum ([7]; during reperfusion, after 600 mg i.v. infusion): 2.24 units | TcPCO ([7]; during reperfusion): 103.5 mm Hg | decrease in mean pain score [8]: 83% | decrease in mean ulcer size (diameter) [8]: 48% | increase in mean pain free walking distance (PWD) [8]: 78%

SMILES: CC(=O)O[C@H](CC(=O)O)C[N+](C)(C)C.[Cl-] [NAC, N-Acetyl carnitine HCl]
effects indicating increased sensory sensitivity ([1]; even at highest concentration of 8 mM): No obvious effects detected | toxicity [9]: No toxic effects | toxicity ([9]; listed as N-Acetyl carnitine): no toxicity observed | effects indicating increased sensory sensitivity ([2]; 8 mM or 4 mM): No effects detected
